The METLIN SMRT retention time set (Domingo-Almenara et al. 2019)

Test: gradient 5% acetonitrile 3 min, to 50% in 2 min, to 85% in 15 min, held 3 min, 100 µL/min
Conditions: column: Zorbax Extend-C18 2.1 x 50 mm; eluents: water / acetonitrile, 0.1% formic acid
In short: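 Standards, all pure, were combined into mixtures of ~100 molecules and run at 100 μL/min on a Zorbax Extend-C18 column (2.1 × 50 mm, 1.8 μm) with water and acetonitrile, each containing 0.1% formic acid. A coupled quadrupole time-of-flight mass spectrometer operated in positive and negative ionization mode. Retention time values come from computationally picked adduct peaks, each inspected manually.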

SMILES | RP-LC retention time [s]
CC(=O)N1CCc2cc(N3CC(C(=O)Nc4ccccc4C(C)C)CC3=O)ccc21 (stereo unspecified) | 728
CC(C)CN1C(=O)c2ccccc2C(C(=O)NCCCN2CCN(C)CC2)C1c1cccs1 (stereo unspecified) | 607
O=C1COc2cc(S(=O)(=O)N3CCCC3C(=O)NC3CCCCC3)c(Cl)cc2N1 (stereo unspecified) | 779
O=C(Nc1ncc(Cc2cccc3ccccc23)s1)C1CC1 | 878
Cc1ccc(CNC(=O)Cn2cccc2-c2nnc(C3CCC3)o2)cc1 | 904
COCC1CN(C(C)=O)CC12CCN(C(=O)CSC)CC2 (stereo unspecified) | 602
CCC(C(=O)N1CCN(c2ccc(-c3ccc4c(c3)OCO4)nn2)CC1)c1ccccc1 (stereo unspecified) | 723
CC(C)(Cc1c[nH]c2ccccc12)NCC(O)COc1ccccc1C#N (stereo unspecified) | 757
Clc1ccccc1-c1nc(-c2ccncc2)no1 | 1040
O=C(c1cc(-c2ccco2)on1)N1CCC2(CC1)OCCS2 | 822
CN(Cc1ccccc1)C(=O)C1CCN(S(=O)(=O)Cc2ccccc2)CC1 | 867
CN(C)C(=O)CCc1ccc2c(c1)CN(C(=O)C1COc3ccccc3O1)CCO2 (stereo unspecified) | 790
CC(C(=O)NCc1ccco1)C1CCN(C(=O)c2cc3ccccc3[nH]2)CC1 (stereo unspecified) | 767
CCc1nc2c(c(=O)n1CC(=O)NCCC1=CCCCC1)CN(Cc1ccccc1)CC2 | 696
O=C1COc2cc(S(=O)(=O)N3CCCC3C(=O)NCCN3CCCCCC3)c(Cl)cc2N1 (stereo unspecified) | 587
O=C(NC1CCCC1)c1cccnc1N1CCSCC1 | 735
CCc1noc(CC2CCOC3(CCN(S(=O)(=O)c4ccc(Cl)cc4)CC3)C2)n1 (stereo unspecified) | 1070
CCc1nnc2ccc(NC(C)C)nn12 | 718
Cc1ccccc1NC(=O)Cn1c(C(F)(F)F)nc2cc3c(cc21)OCCO3 | 857
Cc1ccccc1NC(=O)Cn1c(C)nc2onc(C)c2c1=O | 738
Cc1sc(NC(=O)CCC2CCCCC2)nc1-c1ccc2c(c1)N(C)C(=O)CO2 | 1290
CCNC(=O)c1cc(=O)[nH]c2c(Cl)cccc12 | 614
COc1ccccc1N1CCN(c2ncnc3c2CCC3)CC1 | 645
Cc1nn2c(CNC(=O)c3ccccc3Br)c(C)nc2s1 | 610
O=C(CN1C(=O)CCS(=O)(=O)c2ccccc21)Nc1ccccc1C(F)(F)F | 746
CCOC(=O)c1noc2ncnc(Nc3ccc(F)cc3F)c12 | 799
O=C(Nc1cccc(Cl)c1)C1CCN(S(=O)(=O)c2cc(C(=O)N3CCOCC3)cs2)CC1 | 850

SMILES | RP-LC retention time [s]
Cc1sc(S(=O)(=O)N2CCSCC2)cc1NC(=O)c1ccc(C(C)(C)C)cc1 | 1150
CS(=O)(=O)N1CCC(C(=O)Nc2cccc(C(F)(F)F)c2)Oc2ccc(Cl)cc21 (stereo unspecified) | 1060
CC(C)N(C(=O)Cn1c(CN2CCCCC2)nc2ccccc21)c1ccccc1 | 738
CSc1ccccc1NC(=O)C(=O)NN1CCN(C)CC1 | 559
Cc1ccc(C)c(NC(=O)C2CCN(S(=O)(=O)c3c(C)[nH]c(C)c3C(=O)N3CCCC3)CC2)c1 | 726
O=S(=O)(NCC1(O)CCOCC1)c1ccc2c(c1)CCCC2 | 688
Cc1ccccc1-c1nc2nc(C)c(CC(=O)N3CCCC3)c(C)n2n1 | 735
CCCN1C(=O)COc2cc(-c3noc(C(=O)N4CCCC4)n3)ccc21 | 885
Cc1nc(-c2ccc3c(c2)n(CC(=O)N2CCc4ccccc42)c(=O)n3C(C)C)no1 | 922
O=C(N[C@H]1C[C@@H]2C[C@H]1CN2C(=O)c1ccccc1Cl)c1cccs1 | 701
Cc1cc(C(=O)CSc2nnnn2-c2ccccc2)c(C)n1Cc1ccco1 | 969
CC(C)CCC(=O)N1CCC2(CC1)CC(O)CCO2 (stereo unspecified) | 644
CCc1nn2c(CNS(=O)(=O)c3ccccc3Cl)c(-c3ccccc3)nc2s1 | 1000
CCc1nn(CC(=O)N2CCC(C(N)=O)CC2)c(=O)c2cc3sccc3n12 | 614
O=C(NCCc1cccs1)c1cc[nH]c1C1CCCNC1 (stereo unspecified) | 614
CCSC1=NCCN1C(=O)c1ccc(C(F)(F)F)cc1 | 679
COc1ccc(OC)c(S(=O)(=O)N2CCn3c(nn(CC4CC4)c3=O)C2)c1 | 734
CCSc1nnc(-c2nn(C)c3c2CN(C(=O)c2ccccc2)CC3)n1C | 716
O=C(c1ccccn1)N1CCC(Oc2cc(N3CCCCC3)ncn2)C1 (stereo unspecified) | 686
CCn1cc(CCNC(=O)Nc2ccc(C)cc2C)c2cccnc21 | 705
O=C(NCCCN1CCc2ccccc2C1)c1c(OCC2CC2)cc(=O)n2c1CCCCC2 | 566
CCn1c(=O)c(C)nc2cc(-c3noc(-c4ccc5c(c4)OCO5)n3)ccc21 | 1030
c1cc(-c2noc(-c3ccoc3)n2)cc(N2CCCC2)n1 | 640
CC(C)(C)c1csc(-c2csc(S(=O)(=O)Nc3ccc(F)c(Cl)c3)c2)n1 | 1310
CC1CCCN(c2ccc(-c3noc(CN(C)C4CCCCC4)n3)cn2)C1 (stereo unspecified) | 721
COCC(=O)NC1CCC12CCN(C(=O)c1ccco1)CC2 (stereo unspecified) | 648
N#Cc1ccc(C(=O)N2CCC(c3cc(N)on3)CC2)cc1 | 641

Second part, the molecule after the results:

RP-LC retention time [s] | SMILES
737 | Cc1cc(C)c(S(=O)(=O)Nc2cc(-c3cn4ccccc4n3)ccc2C)cc1C
1190 | CCc1ccc(S(=O)(=O)N2CCc3nc(-c4ccc(F)cc4)ncc3C2)cc1
667 | CCOc1ccc2ncc(S(=O)(=O)c3ccc(C)cc3)c(N3CCN(C)CC3)c2c1
873 | CCc1onc(C)c1C1CCCN1C(=O)Nc1ccc(Cl)cc1 (stereo unspecified)
660 | COc1ccc(-c2cn3c(CC(=O)NC4CCCC4)csc3n2)cc1OC
830 | COc1ccc(CCN2CC(=O)N(c3cccc(C)c3)[C@@H]3CS(=O)(=O)C[C@@H]32)cc1
810 | COc1ccc(NC(=O)Cn2c(=O)c3cc(-c4cccs4)nn3c3ncccc32)cc1
849 | COc1ccc(C(=O)N2CCN(c3nc(-c4ccccc4)no3)CC2)cc1OC
649 | COc1ccc(N2CC(CNC(=O)C3CCCC3)OC2=O)cc1OC (stereo unspecified)
1150 | Cc1ccc(Sc2nccnc2N2CCCC(C(=O)NCc3ccccc3C)C2)cc1 (stereo unspecified)
918 | COc1ccc2cc(C(=O)N3CCCC(c4nnc(-c5ccccc5F)s4)C3)[nH]c2c1 (stereo unspecified)
822 | COc1ccc(S(=O)(=O)N2CCCN(c3ccc(=O)n(-c4ccccc4)n3)CC2)cc1
1230 | CCN(C(=O)c1cccc(F)c1)c1nc(-c2ccccc2)cs1
946 | CCc1ccc(NC(=O)CSc2nnc3c4cc(-c5ccc(OC)cc5)nn4ccn23)cc1
659 | COc1ccc(CNC(=O)CN2C(=O)NC3(CCCCC3)C2=O)cc1OC
727 | COC(=O)c1c(N)n(C(C)c2ccccc2)c2nc3ccccc3nc12 (stereo unspecified)
696 | O=C(Nc1c(-c2ccccc2)nc2ccccn12)c1ccc(Cl)c([N+](=O)[O-])c1
961 | Cc1nc(-c2ccc3c(c2)CCN3C(=O)c2ccc(F)cc2)cs1
923 | O=C(Nc1cccc2ccccc12)c1ccccc1

RP-LC retention time [s] | SMILES
691 | COc1ccc(C(=O)Nc2cnc(N3CCCC3)nc2)cc1
714 | CN(C)CCn1nnc2cc(-c3noc(Cc4ccc(F)cc4)n3)ccc21
1140 | CC(C)(C)c1cc(C(=O)NCc2ccc(F)cc2)nc2ccnn12
671 | NC(=O)C1CCN(C2=NC(=O)/C(=C\c3ccc(-c4ccc(F)cc4)o3)S2)CC1
789 | COc1ccccc1-c1cc(C(=O)N2CCN(c3ccc(=O)n(-c4ccc(F)cc4)n3)CC2)[nH]n1
756 | CCC(=O)N1CCc2cc(N3CC(C(=O)NCc4ccc(C)cc4)CC3=O)ccc21 (stereo unspecified)
964 | CCc1ccc(Nc2nc(C(=O)NCCC(C)C)nc3ccccc23)cc1
713 | CSc1ccc(NC(=O)N2CCC(c3cc(N)on3)CC2)cc1
833 | COc1cc2nccc(Oc3ccc(NC(=O)C4(C(=O)Nc5ccc(F)cc5)CC4)cc3)c2cc1OC
779 | CCN1C(=O)c2cccnc2Sc2cc(CNC(=O)c3sccc3C)ccc21
627 | C[C@@H](NC(=O)c1ccc(F)cc1)C(=O)NCc1cscn1
1120 | Cc1ccc(-c2nc(NC(=O)c3cc(C)on3)sc2C)c(C)c1
643 | N#Cc1ccc(C(=O)Nc2ccc(-c3nnc4n3CCCC4)cc2)cc1
717 | Cc1ccn2c(Nc3ccc4c(c3)OCCO4)c(-c3ccc(Cl)cc3)nc2c1
647 | CCN1C(=O)CCc2cc(NC(=O)Cc3ccc(OC)cc3Cl)ccc21
930 | COc1ccc(OCC(=O)N2CCCC2c2nc(-c3ccccc3)no2)cc1 (stereo unspecified)
851 | COc1ccccc1C(=O)N1CCN(c2ccc(-c3nc(C)c(C)s3)cn2)CC1
802 | CCN1C(=O)c2cccnc2Sc2cc(NC(=O)c3ccccn3)ccc21
